Source: patent publication US12389906B2, “Aqueous herbicidal concentrates” (Monsanto Technology LLC, priority 2014, dated 2025)

How the values were obtained:
SETFA (giant foxtail) = test: Field trial 1 weed control, SETFA; format: in vivo; conditions: 0.25 lb/acre, pre-emergence to weeds, 4 WAT
Description: (§1) Four replications were completed per treatment.

[1] = tested on: ACCOS (hophornbeam copperleaf); test: Field trial 1 weed control, ACCOS; format: in vivo; conditions: 0.25 lb/acre, pre-emergence to weeds, 4 WAT
Description: as §1

IPOHE = test: Field trial 1 weed control, IPOHE; format: in vivo; conditions: 0.25 lb/acre, pre-emergence to weeds, 4 WAT
Description: as §1

DIGSS (Digitaria sps.) = test: Field trial 1 weed control, DIGSS; format: in vivo; conditions: 0.25 lb/acre, pre-emergence to weeds, 4 WAT
Description: as §1

MOLVE (carpetweed) = test: Field trial 1 weed control, MOLVE; format: in vivo; conditions: 0.25 lb/acre, pre-emergence to weeds, 4 WAT
Description: as §1

HIBTR (venice mallow) = test: Field trial 1 weed control, HIBTR; format: in vivo; conditions: 0.25 lb/acre, pre-emergence to weeds, 4 WAT
Description: as §1

AMATG = test: Field trial 1 weed control, AMATG; format: in vivo, Glyphosate-resistant (GR) AMATA; conditions: 0.25 lb/acre, pre-emergence to weeds, 4 WAT
Description: as §1

ECHCF = test: Field trial 1 weed control, ECHCF; format: in vivo; conditions: 0.25 lb/acre, pre-emergence to weeds, 4 WAT
Description: as §1

SIDSP (prickly sida) = test: Field trial 1 weed control, SIDSP; format: in vivo; conditions: 0.25 lb/acre, pre-emergence to weeds, 4 WAT
Description: as §1

SORSS (Sorghum sps.) = test: Field trial 1 weed control, SORSS; format: in vivo; conditions: 0.25 lb/acre, pre-emergence to weeds, 4 WAT
Description: as §1

PESGL (pearl millet) = test: Field trial 1 weed control, PESGL; format: in vivo; conditions: 0.25 lb/acre, pre-emergence to weeds, 4 WAT
Description: as §1

DIGSA = test: Field trial 1 weed control, DIGSA; format: in vivo; conditions: 0.25 lb/acre, pre-emergence to weeds, 4 WAT
Description: as §1

broadleaf weed species [2] = test: Field Trial 1 results summary, broadleaf control; format: in vivo; conditions: 0.25 lb a.i./acre (0.28 kg/hectare), 4 WAT
Description: as §1

AMAPG = test: Field trial 1 weed control, AMAPG; format: in vivo, Glyphosate-resistant (GR) AMAPA; conditions: 0.25 lb/acre, pre-emergence to weeds, 4 WAT
Description: as §1

narrowleaf weed species [3] = test: Field Trial 2 results summary, narrowleaf control; format: in vivo; conditions: 0.25 lb a.i./acre (0.28 kg/hectare), 4 WAT
Description: as §1

SEBEX = test: Field trial 1 weed control, SEBEX; conditions: 0.25 lb/acre, pre-emergence to weeds, 4 WAT
Description: A series of field trials were conducted at a variety of locations. The soil texture at these sites ranged from silty loam, silty clay loam, to sandy silt loam and sandy loam. The objective of the experiment was to evaluate the weed efficacy and length of residual efficacy of the each standalone herbicide compared to the herbicide combinations. The experiments were conducted in a randomized complete block design. Four replications were completed per treatment. Time of application was pre-emergence to weeds, and treatments were applied using a back-pack or tractor mounted sprayer.
Weed control was determined as a percentage as compared to untreated plants following a standard procedure where visual assessment of plant mortality and growth reduction is made by one specially trained to make such assessments. Across the field trials, the results for 16 broadleaf and 7 narrowleaf weed species were recorded. […] Mean percent control and standard error are calculated by the least squares method.

narrowleaf weed species [4] = test: Field Trial 1 results summary, narrowleaf control; format: in vivo; conditions: 0.25 lb a.i./acre (0.28 kg/hectare), 4 WAT
Description: as §1

AMBEL (common ragweed) = test: Field trial 1 weed control, AMBEL; format: in vivo; conditions: 0.25 lb/acre, pre-emergence to weeds, 4 WAT
Description: as §1

BRASS (Signalgrass sps.) = test: Field trial 1 weed control, BRASS; format: in vivo; conditions: 0.25 lb/acre, pre-emergence to weeds, 4 WAT
Description: as §1

CASOB (sicklepod) = test: Field trial 1 weed control, CASOB; format: in vivo; conditions: 0.25 lb/acre, pre-emergence to weeds, 4 WAT
Description: as §1

ABUTH (velvetleaf) = test: Field trial 1 weed control, ABUTH; format: in vivo; conditions: 0.25 lb/acre, pre-emergence to weeds, 4 WAT
Description: as §1

[5] = tested on: CHEAL (common lambsquarters); test: Field trial 1 weed control, CHEAL; format: in vivo; conditions: 0.25 lb/acre, pre-emergence to weeds, 4 WAT
Description: as §1

broadleaf weed species [6] = test: Field Trial 2 results summary, broadleaf control; format: in vivo; conditions: 0.25 lb a.i./acre (0.28 kg/hectare), 4 WAT
Description: as §1

EPHSS (Euphorbia sps.) = test: Field trial 1 weed control, EPHSS; format: in vivo; conditions: 0.25 lb/acre, pre-emergence to weeds, 4 WAT
Description: as §1

[7] = tested on: IPOSS (Morningglory sps.); test: Field trial 1 weed control, IPOSS; format: in vivo; conditions: 0.25 lb/acre, pre-emergence to weeds, 4 WAT
Description: as §1

ECHCG (Echinochola sps.) = test: Field trial 1 weed control, ECHCG; format: in vivo; conditions: 0.25 lb/acre, pre-emergence to weeds, 4 WAT
Description: as §1

POROL (common purslane) = test: Field trial 1 weed control, POROL; format: in vivo; conditions: 0.25 lb/acre, pre-emergence to weeds, 4 WAT
Description: as §1

AMAPA = test: Field trial 1 weed control, AMAPA; format: in vivo, palmer amaranth; conditions: 0.25 lb/acre, pre-emergence to weeds, 4 WAT
Description: as §1

SORHA (johnsongrass) = test: Field trial 1 weed control, SORHA; format: in vivo; conditions: 0.25 lb/acre, pre-emergence to weeds, 4 WAT
Description: as §1

IPOLA = test: Field trial 1 weed control, IPOLA; format: in vivo; conditions: 0.25 lb/acre, pre-emergence to weeds, 4 WAT
Description: as §1

AMATA = test: Field trial 1 weed control, AMATA; format: in vivo, waterhemp; conditions: 0.25 lb/acre, pre-emergence to weeds, 4 WAT
Description: as §1

CS(=O)(=O)NC(=O)c1cc(Oc2ccc(C(F)(F)F)cc2Cl)ccc1[N+](=O)[O-] [Fomesafen, fomesafen]
% Control (mean) (SETFA (giant foxtail)): 58.8% | % Control (mean) [1]: 93.8% | % Control (mean) (IPOHE): 52.5% | % Control (mean) (DIGSS (Digitaria sps.)): 99.0% | % Control (mean) (MOLVE (carpetweed)): 90.6% | % Control (mean) (HIBTR (venice mallow)): 75.0% | % Control (mean) (AMATG): 57.5% | % Control (mean) (ECHCF): 71.9% | % Control (mean) (SIDSP (prickly sida)): 98.3% | % Control (mean) (SORSS (Sorghum sps.)): 99.8% | % Control (mean) (PESGL (pearl millet)): 100.0% | % Control (mean) (DIGSA): 65.3% | Broadleaf Control (broadleaf weed species [2]): 70% | % Control (mean) (AMAPG): 87.8% | Narrowleaf Control (narrowleaf weed species [3]): 66.3% | % Control (mean) (SEBEX): 33.8% | Narrowleaf Control (narrowleaf weed species [4]): 79% | % Control (mean) (AMBEL (common ragweed)): 75.8% | % Control (mean) (BRASS (Signalgrass sps.)): 99.5% | % Control (mean) (CASOB (sicklepod)): 46.2% | % Control (mean) (ABUTH (velvetleaf)): 63.7% | % Control (mean) [5]: 78.3% | Broadleaf Control (broadleaf weed species [6]): 63.6% | % Control (mean) (EPHSS (Euphorbia sps.)): 100.0% | % Control (mean) [7]: 63.1% | % Control (mean) (ECHCG (Echinochola sps.)): 66.8% | % Control (mean) (POROL (common purslane)): 66.3% | % Control (mean) (AMAPA): 92.5% | % Control (mean) (SORHA (johnsongrass)): 86.8% | % Control (mean) (IPOLA): 27.5% | % Control (mean) (AMATA): 85.8%
